In general, solubility (thermodynamic) refers to the concentration in solution at equilibrium with solid.

Consider 2 molecules from EP2752414A1, “Crystalline form of apixaban” (Sandoz AG, priority 2013, dated 2014).

Structures are written as SMILES. In brackets after ≈: the same amount, converted by molar mass.

The nature of data set [1]: Equilibrium solubility, shake flask method (European Pharmacopeia). It counts as physicochemical. The following applies: for Equilibrium solubility / solubility thermodynamic at 24 h: shaking at 400 rpm for 24 hours; for solubility thermodynamic at 24 h: aqueous buffer, 37 °C, thermodynamic from solid. The procedure: As used herein, the term "equilibrium solubility" refers to the maximum solubility of apixaban in various aqueous media of buffers of pH 1.2, 4.5 and 6.8 at 37 °C after 24 hours. The shaking is carried out at 400 rpm.
Equilibrium solubility of crystalline polymorphic Form A of apixaban and references apixaban Form N-1 was performed in various aqueous media of buffers of pH 1.2, 4.5 and 6.8 at 37°C. The solubility was measured using "shake flask" method described in European Pharmacopeia. The shaking was carried out at 400 RMP for 24 hours. Table 2: Equilibrium solubility of crystalline polymorphic Form A of apixaban and reference apixaban Form N-1 in various aqueous media of buffers.
Equilibrium solubility of crystalline polymorphic Form A of apixaban and references apixaban Form N-1 was performed in various aqueous media of buffers of pH 1.2, 4.5 and 6.8 at 37°C. The solubility was measured using "shake flask" method described in European Pharmacopeia. The shaking was carried out at 400 rmp for 24 hours. Table 2: Equilibrium solubility of crystalline polymorphic Form A of apixaban and reference apixaban Form N-1 in various aqueous media of buffers.

The nature of data set [2]: Physical stability of the crystalline form on storage at room atmosphere conditions. It counts as physicochemical. Conditions: after 8 months stored at room atmosphere conditions. An excerpt:
For a pharmaceutical use a solubility of the form which active pharmaceutical ingredient forms is a criterion of exceptional importance under certain circumstances depending on the choice of formulation or the choice of manufacturing process. For drugs which are to be taken orally it is, in general, very important that active pharmaceutical ingredients are sufficiently soluble and bioavailable. Apixaban is such a drug, i.e. characterized by a low solubility in aqueous media. Unexpectedly, improved solubility of crystalline polymorph Form A of apixaban contributes to sufficient bioavailability of apixaban containing drugs. At the same time, a high physical stability of crystalline Form A is preserved.

In data set [1] (aqueous buffer pH 6.8, 37°C), `COc1ccc(-n2nc(C(N)=O)c3c2C(=O)N(c2ccc(N4CCCCC4=O)cc2)CC3)cc1` [Form N-1, 1-(4-methoxyphenyl)-7-oxo-6-(4-(2-oxopiperidin-1-yl)phenyl)-4,5,6,7-tetrahydro-1H-pyrazolo[3,4-c]pyridine-3-carboxamide, reference compound] registered an Equilibrium solubility of 30 µg/mL. In addition, the thermodynamic solubility at 24 h in data set [1] (pH 1.2, simulated gastric fluid, aqueous buffer pH 1.2, 37°C) was 44 µg/mL (≈ 95.8 µM); in data set [1] (pH 4.5, aqueous buffer, aqueous buffer pH 4.5, 37°C), 53 µg/mL (≈ 115 µM).

In the case of `COc1ccc(-n2nc(C(N)=O)c3c2C(=O)N(c2ccc(N4CCCCC4=O)cc2)CC3)cc1` [Form A, 1-(4-methoxyphenyl)-7-oxo-6-(4-(2-oxopiperidin-1-yl)phenyl)-4,5,6,7-tetrahydro-1H-pyrazolo[3,4-c]pyridine-3-carboxamide], the Equilibrium solubility in data set [1] (aqueous buffer pH 1.2, 37°C) was found to be 58 µg/mL; in data set [1] (aqueous buffer pH 4.5, 37°C), 74 µg/mL; in data set [1] (aqueous buffer pH 6.8, 37°C), 72 µg/mL. Moreover, the “comparison of equilibrium solubility with reference polymorph Form N-1” value in data set [1] (aqueous buffers pH 1.2, 4.5 and 6.8, 37°C (Table 2)) is given as “higher solubility”. The “physical stability (crystalline structure)” value in data set [2] was “the crystalline structure remains unchanged”.
